In patent US20100285095A1 (priority 2009, published 2010):
Where “and” joins values, the source holds several entries; their conditions need not be identical. Equal values may be shown once. Read-outs that look alike come from different tables or passages of the source.

How the values were obtained:
[1] = test system: S. aureus MN 8; assay type: cell-based, Staphylococcus aureus
[2] = physchem; conditions: 25 °C, water
[3] = % reduction per mM Ca added, higher concentrations, Ca (mM) as in Table 2: chloride 75.6, stearate 98.8, lactate 53.1, citrate malate 22.6, glycerate 39.7, gluconate 38.4, α-D-heptagluconate 38.1
[4] = % reduction per mM Ca added, low concentrations, Ca (mM) as in Table 1: chloride 15.1, stearate 9.9, lactate 8.8, citrate malate 6.8, glycerate 4.0, gluconate 3.8, α-D-heptagluconate 3.8
[5] = reduction of TSST-1 vs. PBS and BHI control, low concentrations, Ca (mM) added to shake flask: calcium chloride 15.1, calcium stearate 9.9 (solid added directly into the media), calcium lactate 8.8, calcium citrate malate 6.8, calcium glycerate 4.0, calcium gluconate 3.8, calcium α-D-heptagluconate 3.8
[6] = % reduction per mM Ca added, Ca 4.0 mM added to shake flask

**Q.** Which results are given for `[Ca+2].[Cl-].[Cl-]` [calcium chloride, reference compound]?
**A.** % TSST-1 Change (μg/ml/mM) vs. control [1, 3]: 1.1%; % TSST-1 Change (μg/ml/mM) vs. control [1, 4]: 2.5%; % TSST-1 Change (μg/mL) vs. control [1, 5]: 37%

**Q.** Which “% TSST-1 Change (μg/mL) vs. control” value [1] does the source give for `O=C([O-])C(O)[C@H](O)[C@@H](O)[C@H](O)[C@H](O)CO.O=C([O-])C(O)[C@H](O)[C@@H](O)[C@H](O)[C@H](O)CO.[Ca+2]` (stereo partly drawn) [calcium α-D-heptagluconate] here?
**A.** The value was 47%.

**Q.** What about the “% TSST-1 Change (μg/ml/mM) vs. control” value [1] of the same molecule?
**A.** Its value is 12.5% and 2.6%.

**Q.** With “calcium citrate malate [reference compound]” as the molecule, how does the “% TSST-1 Change (μg/ml/mM) vs. control” value [1, 3] read?
**A.** Its value is 3.9%.

**Q.** And the “% TSST-1 Change (μg/ml/mM) vs. control” value [1, 4]?
**A.** Its value is 13.1%.

**Q.** What about the “% TSST-1 Change (μg/mL) vs. control” value [1, 5] of the same molecule?
**A.** Its value is 89%.

**Q.** With `O=C(O)C(O)CO` (stereo not drawn) [calcium glycerate] as the molecule, how does the solubility [2] read?
**A.** The solubility was 349 mM.

**Q.** And the “% TSST-1 Change (μg/ml/mM) vs. control” value [1, 3]?
**A.** The value was 2.5%.

**Q.** And the “% TSST-1 Change (μg/ml/mM) vs. control” value [1, 4]?
**A.** Its value is 17.0%.

**Q.** What about the “% TSST-1 Change (μg/mL) vs. control” value [1, 5] of the same molecule?
**A.** The value was 68%.

**Q.** With calcium stearate [reference compound] as the molecule, how does the “% TSST-1 Change (μg/ml/mM) vs. control” value [1, 3] read?
**A.** The value was 0.6%.

**Q.** What about the “% TSST-1 Change (μg/ml/mM) vs. control” value [1, 4] of the same molecule?
**A.** Its value is 6.6%.

**Q.** What about the “% TSST-1 Change (μg/mL) vs. control” value [1, 5] of the same molecule?
**A.** Its value is 65%.

**Q.** With calcium gluconate as the molecule, how does the “% TSST-1 Change (μg/ml/mM) vs. control” value [1, 3] read?
**A.** Its value is 2.5%.

**Q.** And the “% TSST-1 Change (μg/ml/mM) vs. control” value [1, 4]?
**A.** Its value is 21.3%.

**Q.** And the “% TSST-1 Change (μg/mL) vs. control” value [1, 5]?
**A.** Its value is 81%.

**Q.** With `O=C([O-])[C@@H](O)CO.O=C([O-])[C@@H](O)CO.[Ca+2]` [calcium L-glycerate] as the molecule, how does the “% TSST-1 Change (μg/ml/mM) vs. control” value [1, 6] read?
**A.** Its value is 15.3%.

**Q.** With `O=C(O)C(O)CO` (racemic) [calcium glycerate] as the molecule, how does the “% TSST-1 Change (μg/ml/mM) vs. control” value [1, 6] read?
**A.** Its value is 17.0%.

**Q.** For `CC(O)C(=O)[O-].CC(O)C(=O)[O-].[Ca+2]` (stereo not drawn) [calcium lactate, reference compound], which “% TSST-1 Change (μg/ml/mM) vs. control” value [1, 3] is on record?
**A.** Its value is 1.7%.

**Q.** And the “% TSST-1 Change (μg/ml/mM) vs. control” value [1, 4]?
**A.** Its value is 5.6%.

**Q.** And the “% TSST-1 Change (μg/mL) vs. control” value [1, 5]?
**A.** Its value is 49%.

**Q.** Which “% TSST-1 Change (μg/ml/mM) vs. control” value [1, 6] does the source give for `O=C([O-])C(O)CO.O=C([O-])C(O)CO.[Ca+2]` [calcium D-glycerate] here?
**A.** Its value is 22.9%.
